Results taken from patent EP0408284B1, “Amylin for treatment of bone disorders” (AMYLIN PHARMACEUTICALS, INC., priority 1989, dated 1996).
Read-outs that look alike come from different tables or passages of the source. Ends that are not written are not given here.

Tests used:
[1] = test system: disaggregated rat osteoclasts
Experimental: (§1) Bone resorption assay: Human cortical bone slices were prepared as previously described (Zaidi et al. Quart J.Exp. Physiol. 73, p. 471 (1988). The slices were then cut into pieces, each measuring about 3mm². Newborn Wistar rats were killed by decapitation and their femora and tibiae removed. The bones were freed of adherent soft tissues and cut across their epiphyses in Medium 199 with foetal calf serum (FCS, 10%, v/v) and antibiotics (Flow Laboratories, UK, Ltd.). Osteoclasts were mechanically disaggregated by curetting the bones of each rat with a scalpel blade into Medium 199 (1 ml) and agitating the suspension with a pipette. Large fragments were allowed to settle for 10 seconds, before the supernatant was dropped onto 30 to 35 bone slices placed in a well of a Sterilin 100 18mm multiwell dish. Following incubation (37°C; 15 minutes), the bone slices were removed, washed gently in Minimal Essential Medium with FCS (10%, v/v) (MEM/FCS) and placed in separate wells (each well contained 5-6 slices and 900 µl MEM/FCS). […] After further incubation (37°C, 10% humidified CO₂, 10 minutes), 100 µl of MEM/FCS containing the test substance was added. Finally, bone slices were incubated overnight (37°C, 10% humidified CO₂, 18 hours) and quantified in terms of cell numbers and bone resorption. After fixation in glutaraldehyde, cells were stained with toluidine blue and examined by transmitted light microscopy. In order to rule out toxic effects, osteoclasts were counted on three slices for every variable and their numbers were then compared on hormone-treated and control bone slices. The slices were bleached by immersion in sodium hypochlorite solution (10% v/v) for 30 minutes and dehydrated in aqueous ethanol (80% v/v). The slices were then sputter coated with gold, randomized and examined in a Cambridge 360 Scanning Electron Microscope (Cambridge Instruments, Cambridgeshire). Osteoclastic excavations, each defined by a continuous border within an area of unresorbed bone were counted. The area of bone surface resorbed was calculated by tracing the outline of the concavities into an image processor (Sight Systems, Newbury, Berks).

isolated osteoclasts = experiment: second messenger pathways and functional responses of isolated osteoclasts; format: cell-based
Text: Thus, it appears that osteoclast activity may be restrained via two receptor types; calcitonin acts at both while amylin acts mainly via only one, reducing motility, reducing resorption and probably acting via the second messenger cAMP (Zaidi et. al. 1990, J. Endocrinol 126, 473-481).

[2] = in vivo rat hypocalcaemia assay: plasma calcium after intravenous injection of the peptide; parameters: species or system male Wistar rats
Experimental: The effects of amylin and deamidated amylin on calcium metabolism in the rat and rabbit were investigated by two different methods. First, in vivo hypocalcaemic activity was assessed by measuring plasma calcium levels after injection of the peptide in 50 g rats. Next, in vitro resorption of cortical bone by disaggregated rat osteoclasts was quantified by scanning electron microscopy together with image analysis. […] Both are inhibitors of osteoclastic resorption and lower plasma calcium in both rats and rabbits. Described below are experiments which show the biological activity of both amylin and deamidated amylin using the in vivo rat hypocalcaemia assay and an in vitro bone resorption system. In addition, the effect on plasma calcium levels of infusion of high doses of amylin into rabbits is described.
Animal experiments: Fifty gram male Wistar rats (mean weight ± SEM, 51 ± 1.2g, Charles Rivers, Margate, Kent) were fasted overnight with ad lib access to water and used for experiments. […] Following injection the animals were bled into heparinized syringes via the dorsal aorta under light ether anaesthesia. In another set of experiments, rabbits (mean weight ± SEM, 3.2 ± 0.3 kg) were restrained in wooden cages and sedated with Hypnorm (1 ml) (Janssen, Denmark). […] Plasma was separated and calcium levels measured by DC Plasma Emission Spectrophotometry.

[3] = plasma calcium during and after continuous intravenous infusion into rabbits; format: in vivo; conditions: infusion of 500 pmol per minute over 90 minutes
Experimental: Animal experiments: Fifty gram male Wistar rats (mean weight ± SEM, 51 ± 1.2g, Charles Rivers, Margate, Kent) were fasted overnight with ad lib access to water and used for experiments. […] Following injection the animals were bled into heparinized syringes via the dorsal aorta under light ether anaesthesia. In another set of experiments, rabbits (mean weight ± SEM, 3.2 ± 0.3 kg) were restrained in wooden cages and sedated with Hypnorm (1 ml) (Janssen, Denmark). They were infused with saline or amylin (500 pmol min ⁻¹) for 90 minutes via a 21 G needle inserted into the lateral ear vein. The needle was connected to a pump via a polythene cannula (Portex, 00, Hythe, Kent). Blood samples were taken at timed intervals before and after the infusion was commenced. Plasma was separated and calcium levels measured by DC Plasma Emission Spectrophotometry.

[4] = plasma calcium after intravenous infusion in patients with Paget's disease; format: in vivo
Experimental: Furthermore, 1 hour of intravenous infusion of 150 pmol/Kg/min amylin into four human patients with Paget's disease reduced plasma calcium by amounts ranging from […].

[5] = test system: disaggregated rat osteoclasts; experiment: bone resorption assay: isolated osteoclasts on human cortical bone slices, scanning electron microscopy with image analysis
Experimental: as §1

[6] = peptides not all compared in the same assay

Compound | cell number or viability [1] | cell retraction (isolated osteoclasts) | cytosolic calcium (isolated osteoclasts) | osteoclast motility (isolated osteoclasts) | effect on plasma calcium ([2]; 50 g rats, intravenous injection of 500 pmol) | responses (hypocalcaemic and anti-resorptive activity) compared with calcitonin and CGRP ([2]; summary covering the in vivo and the in vitro tests, order: asu1-7-eel CT>human CT>amylin/amylin amide>CGRP) | effect on plasma calcium [3] | time calcium levels continued to fall after the end of the infusion [3] [min] | time until a trend to lower plasma calcium was apparent [3] [min] | potency compared with human calcitonin [4] | total area of bone resorbed by isolated osteoclasts ([5]; 18 hours incubation, concentration-dependent) | cell number or viability ([5]; osteoclasts counted on hormone-treated and control bone slices) | potency compared with CGRP [5, 6] | potency compared with human calcitonin [5, 6]
CC[C@H](C)[C@H](NC(=O)[C@H](C)NC(=O)CNC(=O)[C@H](Cc1ccccc1)NC(=O)[C@H](CC(N)=O)NC(=O)[C@H](CC(N)=O)NC(=O)[C@H](CO)NC(=O)[C@H](CO)NC(=O)[C@H](Cc1c[nH]cn1)NC(=O)[C@@H](NC(=O)[C@H](CC(C)C)NC(=O)[C@H](Cc1ccccc1)NC(=O)[C@H](CC(N)=O)NC(=O)[C@H](C)NC(=O)[C@H](CC(C)C)NC(=O)[C@H](CCCNC(=N)N)NC(=O)[C@H](CCC(N)=O)NC(=O)[C@@H](NC(=O)[C@H](C)NC(=O)[C@@H]1CSSC[C@H](NC(=O)[C@@H](N)CCCCN)C(=O)N[C@@H](CC(N)=O)C(=O)N[C@@H]([C@@H](C)O)C(=O)N[C@@H](C)C(=O)N[C@@H]([C@@H](C)O)C(=O)N1)[C@@H](C)O)C(C)C)C(=O)N[C@@H](CC(C)C)C(=O)N[C@@H](CO)C(=O)N[C@@H](CO)C(=O)N[C@H](C(=O)N[C@@H](CC(N)=O)C(=O)N[C@H](C(=O)NCC(=O)N[C@@H](CO)C(=O)N[C@@H](CC(N)=O)C(=O)N[C@H](C(=O)N[C@@H](Cc1ccc(O)cc1)C(=O)O)[C@@H](C)O)C(C)C)[C@@H](C)O [deamidated amylin] | without affecting cell number or viability |  |  |  |  |  |  |  |  |  |  |  |  | 
calcitonin [reference compound] |  | caused cell retraction | elevated cytosolic calcium | inhibited osteoclast motility |  |  |  |  |  |  |  |  |  | 
amylin (KCNTATCATQRLANFLVHSSNNFGAILSSTNVGSNTY-NH2; cysteine pairing not given here; UniProt P10997 34-70, looked up) |  | evoked neither of these responses | evoked neither of these responses | inhibited osteoclast motility | marked hypocalcaemia | less than for calcitonin, but significantly greater than those observed with CGRP | marked lowering of plasma calcium | 30 | ≤ 30 | comparably potent to human calcitonin | marked reduction | without affecting cell number or viability | more potent than CGRP | less potent than human calcitonin by about an order or magnitude
